Assay results from US12371428B2 (Exelixis, Inc., priority 2019, dated 2025).
Like-named read-outs stand apart in the source and are kept apart here.

Legend:
[1] = target: Human MER (residues 528-999) (Homo sapiens (Human), UniProt Q12866); test: Human Mer kinase assay, HTRF KinEase (Example C-2); assay type: biochemical
Procedure, shortened: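 IC50 values from 10 concentrations via 4-parameter logistic fit of […], with DMSO as 100% and 1 μM reference compound as 0% activity. Reaction: MER kinase domain 528-999, 1 ng/well, 40 μM ATP (Km), biotin peptide, 5 mM MgCl2, 1 mM DTT, 3% DMSO, room temperature 60 min; HTRF streptavidin-XL665/Eu-antibody detection.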

[2] = target: Human MET (residues 956-1390) (Homo sapiens (Human), UniProt P08581); test: Human Met kinase assay, HTRF KinEase (Example D-2); assay type: biochemical; details: read-out: c-Met IC50
Procedure, shortened: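 IC50 values come from a 4-parameter logistic fit of the […] fluorescence ratio, set between DMSO (100%) and reference compound at 1 μM (0%). Reactions held MET 956-1390 at 0.1 ng/well, ATP at Km, biotinylated peptide, 5 mM MgCl2, 1 mM MnCl2, 1 mM DTT and 3% DMSO, and ran 40 min at room temperature before streptavidin-XL665/Eu-antibody detection.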

[3] = target: Human KDR (residues 790-1356) (Homo sapiens (Human), UniProt P35968); test: Human KDR kinase assay, HTRF KinEase (Example B-2); assay type: biochemical
Procedure, shortened: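 Human KDR residues 790-1356 (0.1 ng/well) in buffer with 5 mM MgCl2, 1 mM MnCl2, 1 mM DTT, biotinylated peptide substrate, ATP at Km (4.0 μM), 3% DMSO, 10 compound concentrations; 40 min, room temperature. EDTA stop, streptavidin-XL665/Eu-TK antibody HTRF read 665/620 nm; 4-parameter IC50.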

[4] = target: Mer (phospho-Mer, MERTK-transfected 293A cells) (Homo sapiens (Human), UniProt Q12866); test: Mer autophosphorylation ELISA in transient transfected 293A cells (Example H); assay type: cell-based; details: cellular activity
Procedure, shortened: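 Inhibition of cellular Mer autophosphorylation is determined in 293A cells transiently expressing human MERTK after 1 h compound exposure (8 concentrations, serum-free, 0.3% DMSO). Phospho-Mer in clarified lysates is measured by ELISA, with DMSO and reference-inhibitor wells defining the 100% and 0% activity limits.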

[5] = target: KDR (phospho-KDR, VEGF165-stimulated HUVEC cells) (Homo sapiens (Human), UniProt P35968); test: KDR autophosphorylation ELISA in HUVEC cells (Example G); assay type: cell-based; details: cellular activity; KDR autophosphorylation ELISA in HUVEC cells
Procedure, shortened: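 IC50 values derive from nonlinear curve fitting of phospho-KDR levels measured by ELISA and interpolated from a phosphoprotein standard. Beforehand, starved HUVECs received compound (0.3% DMSO vehicle) for one hour and were activated with VEGF165 at 100 ng/mL for 5 min.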

[6] = target: AXL (phospho-AXL, Gas6-stimulated A-172 glioblastoma cells) (Homo sapiens (Human), UniProt P30530); test: AXL autophosphorylation ELISA in A-172 cells (Example E); assay type: cell-based; details: cellular activity, read-out: Axl IC50
Description: A-172 cells were incubated at 37° C., 5% CO2 for 24 h and then starved for 24 h in serum-free medium. Test compounds were serially diluted to produce an 8-point dose curve in fresh serum-free medium to a final concentration of 0.3% DMSO (vehicle) and added to the cells and incubated for 1 h. […] Lysates were collected and 100 μL/well added into the human phospho-AXL DuoSet IC ELISA (R&D Systems #DYC2228-2). […] Positive control wells (100% activity) contained Gas6-stimulated, DMSO-treated cell lysates. Negative control wells (0% activity) contained Gas6-stimulated, reference inhibitor-treated cell lysates. IC50 values were calculated by nonlinear regression analysis using a 4-parameter logistic curve fit in ActivityBase XE (IDBS).

[7] = target: Met (phospho-Met, HGF-stimulated PC-3 prostate cancer cells) (Homo sapiens (Human), UniProt P08581); test: Met autophosphorylation ELISA in PC-3 cells (Example F); assay type: cell-based; details: cellular activity, read-out: c-Met IC50
Procedure, shortened: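 IC50 values derive from a 4-parameter logistic fit of phospho-Met (panTyr) sandwich ELISA signals in PC-3 lysates, scaled between DMSO and reference-inhibitor wells. Cells, starved 3 h in serum-free medium, had 1 h compound exposure (8 doses, 0.3% DMSO) before 10 min stimulation with 100 ng/mL HGF.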

[8] = Mer autophosphorylation ELISA in transient transfected 293A cells
[9] = AXL autophosphorylation ELISA in A-172 cells
[10] = Met autophosphorylation ELISA in PC-3 cells
[11] = protocol of Example C-2 (other compounds)
[12] = protocol of Example D-2 (other compounds)
[13] = protocol of Example B-2 (other compounds)

Met (phospho-Met, HGF-stimulated PC-3 prostate cancer cells), sequence (P08581 25-1390): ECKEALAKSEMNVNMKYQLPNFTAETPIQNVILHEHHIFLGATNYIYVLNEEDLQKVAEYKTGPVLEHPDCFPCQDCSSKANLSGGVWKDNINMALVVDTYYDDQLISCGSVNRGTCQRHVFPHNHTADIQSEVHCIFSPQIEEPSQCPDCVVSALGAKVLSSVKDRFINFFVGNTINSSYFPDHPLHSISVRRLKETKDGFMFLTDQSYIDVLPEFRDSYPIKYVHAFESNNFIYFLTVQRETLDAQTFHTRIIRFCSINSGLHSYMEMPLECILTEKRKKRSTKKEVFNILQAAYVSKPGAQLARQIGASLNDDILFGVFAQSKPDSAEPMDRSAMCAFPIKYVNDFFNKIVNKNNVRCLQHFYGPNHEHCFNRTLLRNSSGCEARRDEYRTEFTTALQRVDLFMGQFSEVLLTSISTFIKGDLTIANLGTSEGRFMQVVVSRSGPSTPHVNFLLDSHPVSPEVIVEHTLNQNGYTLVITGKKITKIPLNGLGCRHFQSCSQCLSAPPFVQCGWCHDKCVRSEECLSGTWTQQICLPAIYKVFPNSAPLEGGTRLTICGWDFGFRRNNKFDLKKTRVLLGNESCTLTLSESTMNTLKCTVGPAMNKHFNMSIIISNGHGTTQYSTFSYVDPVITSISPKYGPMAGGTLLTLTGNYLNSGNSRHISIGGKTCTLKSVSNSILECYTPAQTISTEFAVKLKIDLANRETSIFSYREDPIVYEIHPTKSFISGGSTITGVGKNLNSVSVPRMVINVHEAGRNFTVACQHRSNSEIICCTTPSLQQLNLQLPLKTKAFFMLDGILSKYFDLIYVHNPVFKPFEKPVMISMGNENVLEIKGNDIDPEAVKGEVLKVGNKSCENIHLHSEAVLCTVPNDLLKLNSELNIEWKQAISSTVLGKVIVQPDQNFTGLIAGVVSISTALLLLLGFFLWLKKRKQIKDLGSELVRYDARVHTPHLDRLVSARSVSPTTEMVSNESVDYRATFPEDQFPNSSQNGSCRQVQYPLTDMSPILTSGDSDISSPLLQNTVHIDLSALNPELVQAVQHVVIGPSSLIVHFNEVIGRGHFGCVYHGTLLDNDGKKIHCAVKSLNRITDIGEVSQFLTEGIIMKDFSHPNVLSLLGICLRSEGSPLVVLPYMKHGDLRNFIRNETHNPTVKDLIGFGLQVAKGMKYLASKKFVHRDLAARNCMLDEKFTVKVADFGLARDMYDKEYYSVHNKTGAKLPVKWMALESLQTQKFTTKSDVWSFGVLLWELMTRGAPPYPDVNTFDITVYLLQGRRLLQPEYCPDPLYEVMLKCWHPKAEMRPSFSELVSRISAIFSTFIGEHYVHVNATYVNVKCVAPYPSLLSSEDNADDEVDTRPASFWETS
Mer (phospho-Mer, MERTK-transfected 293A cells), sequence (Q12866 21-999): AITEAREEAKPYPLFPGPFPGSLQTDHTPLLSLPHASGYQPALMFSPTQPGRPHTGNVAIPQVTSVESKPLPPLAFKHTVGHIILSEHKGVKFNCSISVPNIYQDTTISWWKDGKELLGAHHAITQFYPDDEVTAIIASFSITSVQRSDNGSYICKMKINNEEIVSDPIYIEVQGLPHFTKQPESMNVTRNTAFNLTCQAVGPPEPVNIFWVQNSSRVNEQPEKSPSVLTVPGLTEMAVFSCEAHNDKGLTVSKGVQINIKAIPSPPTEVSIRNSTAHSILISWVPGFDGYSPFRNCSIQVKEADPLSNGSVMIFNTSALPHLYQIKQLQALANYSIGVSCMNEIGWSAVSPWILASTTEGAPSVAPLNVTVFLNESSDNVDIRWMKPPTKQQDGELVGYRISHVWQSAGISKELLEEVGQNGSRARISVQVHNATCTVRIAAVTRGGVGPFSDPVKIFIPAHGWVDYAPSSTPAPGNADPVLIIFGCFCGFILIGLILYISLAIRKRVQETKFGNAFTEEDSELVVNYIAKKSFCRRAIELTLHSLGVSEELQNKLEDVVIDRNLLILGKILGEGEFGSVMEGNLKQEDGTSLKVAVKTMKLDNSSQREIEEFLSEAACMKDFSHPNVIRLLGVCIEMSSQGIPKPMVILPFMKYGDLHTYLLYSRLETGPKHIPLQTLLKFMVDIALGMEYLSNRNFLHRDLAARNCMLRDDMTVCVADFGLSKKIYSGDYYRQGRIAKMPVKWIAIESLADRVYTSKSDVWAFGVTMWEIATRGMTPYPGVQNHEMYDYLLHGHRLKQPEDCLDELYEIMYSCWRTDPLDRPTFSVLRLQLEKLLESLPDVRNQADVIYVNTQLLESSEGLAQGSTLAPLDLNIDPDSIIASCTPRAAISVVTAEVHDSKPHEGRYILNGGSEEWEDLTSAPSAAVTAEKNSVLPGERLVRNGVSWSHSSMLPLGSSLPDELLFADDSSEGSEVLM
Human MER (residues 528-999), sequence (Q12866 528-999): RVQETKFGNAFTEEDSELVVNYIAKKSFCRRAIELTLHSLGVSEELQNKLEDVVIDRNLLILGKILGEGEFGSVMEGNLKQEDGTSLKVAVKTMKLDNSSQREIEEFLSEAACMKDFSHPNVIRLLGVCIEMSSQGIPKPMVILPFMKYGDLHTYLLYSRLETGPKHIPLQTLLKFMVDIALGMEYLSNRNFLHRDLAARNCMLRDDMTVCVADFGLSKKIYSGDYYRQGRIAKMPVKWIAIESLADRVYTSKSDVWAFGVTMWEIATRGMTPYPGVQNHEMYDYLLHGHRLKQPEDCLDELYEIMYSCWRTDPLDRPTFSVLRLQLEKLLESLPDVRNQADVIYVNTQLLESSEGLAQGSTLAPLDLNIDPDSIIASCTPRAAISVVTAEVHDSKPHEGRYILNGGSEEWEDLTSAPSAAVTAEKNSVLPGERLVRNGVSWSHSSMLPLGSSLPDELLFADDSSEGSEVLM
KDR (phospho-KDR, VEGF165-stimulated HUVEC cells), sequence (P35968 20-1356): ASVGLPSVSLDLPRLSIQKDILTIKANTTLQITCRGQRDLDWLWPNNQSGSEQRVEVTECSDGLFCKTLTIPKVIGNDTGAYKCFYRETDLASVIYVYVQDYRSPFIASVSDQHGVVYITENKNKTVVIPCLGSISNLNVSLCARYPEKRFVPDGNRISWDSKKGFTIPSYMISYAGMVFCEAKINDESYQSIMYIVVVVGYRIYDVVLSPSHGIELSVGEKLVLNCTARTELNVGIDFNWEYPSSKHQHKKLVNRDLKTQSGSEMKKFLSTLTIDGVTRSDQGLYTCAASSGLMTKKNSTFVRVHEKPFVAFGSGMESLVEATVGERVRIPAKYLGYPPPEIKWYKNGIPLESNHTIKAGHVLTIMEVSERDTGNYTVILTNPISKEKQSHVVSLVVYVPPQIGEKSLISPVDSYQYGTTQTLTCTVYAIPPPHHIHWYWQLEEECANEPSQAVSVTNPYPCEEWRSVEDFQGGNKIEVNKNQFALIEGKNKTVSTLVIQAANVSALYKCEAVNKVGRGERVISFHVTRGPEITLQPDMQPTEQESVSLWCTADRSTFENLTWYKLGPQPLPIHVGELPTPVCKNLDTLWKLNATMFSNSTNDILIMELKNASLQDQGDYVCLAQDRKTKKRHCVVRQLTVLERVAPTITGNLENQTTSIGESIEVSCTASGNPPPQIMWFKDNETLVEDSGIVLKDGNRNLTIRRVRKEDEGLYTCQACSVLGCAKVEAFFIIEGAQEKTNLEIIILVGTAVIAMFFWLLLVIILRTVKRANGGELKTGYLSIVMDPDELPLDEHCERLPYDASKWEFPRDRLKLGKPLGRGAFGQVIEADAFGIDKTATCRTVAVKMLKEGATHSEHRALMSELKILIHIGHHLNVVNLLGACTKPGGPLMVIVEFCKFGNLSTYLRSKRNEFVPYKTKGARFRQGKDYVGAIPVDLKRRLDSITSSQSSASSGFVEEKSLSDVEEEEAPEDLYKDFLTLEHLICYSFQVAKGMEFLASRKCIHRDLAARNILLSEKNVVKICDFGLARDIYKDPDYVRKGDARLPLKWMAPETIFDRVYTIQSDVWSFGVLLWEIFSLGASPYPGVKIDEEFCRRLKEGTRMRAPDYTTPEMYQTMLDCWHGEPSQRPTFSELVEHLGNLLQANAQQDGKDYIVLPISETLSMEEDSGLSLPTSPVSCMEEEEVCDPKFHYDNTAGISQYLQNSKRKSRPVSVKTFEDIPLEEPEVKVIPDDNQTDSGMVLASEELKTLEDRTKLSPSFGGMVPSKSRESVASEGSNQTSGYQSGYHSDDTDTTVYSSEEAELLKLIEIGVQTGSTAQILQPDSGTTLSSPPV
Human KDR (residues 790-1356), sequence (P35968 790-1356): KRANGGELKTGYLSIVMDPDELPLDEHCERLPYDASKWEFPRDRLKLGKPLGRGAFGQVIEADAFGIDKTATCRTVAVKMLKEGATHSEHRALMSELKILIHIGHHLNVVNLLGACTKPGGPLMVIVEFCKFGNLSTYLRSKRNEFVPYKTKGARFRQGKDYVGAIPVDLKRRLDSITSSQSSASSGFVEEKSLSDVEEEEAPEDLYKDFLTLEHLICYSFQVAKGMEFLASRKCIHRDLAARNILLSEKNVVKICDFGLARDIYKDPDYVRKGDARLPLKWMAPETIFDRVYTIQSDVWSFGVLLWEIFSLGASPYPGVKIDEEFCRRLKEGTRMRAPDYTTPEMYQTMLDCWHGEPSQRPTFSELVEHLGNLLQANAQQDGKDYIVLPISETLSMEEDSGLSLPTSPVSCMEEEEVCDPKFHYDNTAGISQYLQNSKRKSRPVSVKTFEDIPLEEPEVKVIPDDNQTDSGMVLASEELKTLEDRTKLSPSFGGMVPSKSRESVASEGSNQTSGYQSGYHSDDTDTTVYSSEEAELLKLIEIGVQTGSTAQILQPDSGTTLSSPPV

| SMILES | IC50 [4, 8] [µM] | IC50 [6, 9] [µM] | IC50 [7, 10] [µM] | IC50 [1, 11] [µM] | IC50 [2, 12] [µM] | IC50 [3, 13] [µM] | further results |
| --- | --- | --- | --- | --- | --- | --- | --- |
| COc1cnc2c(Oc3ccc(NC(=O)c4cn(CCO)c(C)c(-c5ccc(F)cc5)c4=O)cc3F)ccnc2c1 [Compound 621, N-[3-Fluoro-4-[(7-methoxy-1,5-naphthyridin-4-yl)oxy]phenyl]-5-(4-fluorophenyl)-1-(2-hydroxyethyl)-6-methyl-4-oxopyridine-3-carboxamide] | 0.1 to 0.3 |  |  |  |  |  | IC50 ([1]; protocol of Example C-2): < 0.1 µM; IC50 ([2]; protocol of Example D-2): < 0.1 µM; IC50 ([3]; protocol of Example B-2): > 0.3 µM; IC50 [5]: 0.1 to 0.3 µM |
| COc1cc2nccc(Oc3ccc(NC(=O)c4cn(CCF)c(C)c(-c5ccc(F)cc5)c4=O)cc3F)c2nc1OC [Compound 622, N-[4-[(6,7-Dimethoxy-1,5-naphthyridin-4-yl)oxy]-3-fluorophenyl]-1-(2-fluoroethyl)-5-(4-fluorophenyl)-6-methyl-4-oxopyridine-3-carboxamide] | < 0.1 | < 0.1 | < 0.1 |  |  |  |  |
| COc1cnc2c(Oc3ccc(NC(=O)c4c(C)n(CCF)cc(-c5ccc(F)c(F)c5)c4=O)cc3F)ccnc2c1 [Compound 807, 5-(3,4-difluorophenyl)-1-(2-fluoroethyl)-N-[3-fluoro-4-[(7-methoxy-1,5-naphthyridin-4-yl)oxy]phenyl]-2-methyl-4-oxopyridine-3-carboxamide] |  |  |  |  |  |  | IC50 ([4]; transfected 293A cells): < 0.1 µM; IC50 ([6]; A-172 cells): < 0.1 µM; IC50 ([7]; PC-3 cells): 0.1 to 0.3 µM |
| COc1cnc2c(Oc3ccc(NC(=O)c4cn(CCF)c(C)c(-c5ccc(F)cc5)c4=O)cc3F)ccnc2c1 [Compound 624, 1-(2-Fluoroethyl)-N-[3-fluoro-4-[(7-methoxy-1,5-naphthyridin-4-yl)oxy]phenyl]-5-(4-fluorophenyl)-6-methyl-4-oxopyridine-3-carboxamide] | < 0.1 | < 0.1 | < 0.1 |  |  |  |  |
| COc1cnc2c(Oc3ccc(NC(=O)c4c(C)nc(C)c(-c5ccc(F)cc5F)c4O)cc3F)ccnc2c1 [Compound 210, 5-(2,4-Difluorophenyl)-N-[3-fluoro-4-[(7-methoxy-1,5-naphthyridin-4-yl)oxy]phenyl]-4-hydroxy-2,6-dimethylpyridine-3-carboxamide] | < 0.1 | < 0.1 | < 0.1 |  |  |  |  |
| Cc1ccc2nccc(Oc3ccc(NC(=O)c4c(C)nc(C)c(-c5ccc(F)cc5C)c4O)cc3)c2n1 [Compound 507, 5-(4-fluoro-2-methylphenyl)-4-hydroxy-2,6-dimethyl-N-[4-[(6-methyl-1,5-naphthyridin-4-yl)oxy]phenyl]pyridine-3-carboxamide] | 0.1 to 0.3 |  |  |  |  |  | IC50 ([1]; protocol of Example C-2): 0.1 to 0.3 µM; IC50 ([2]; protocol of Example D-2): < 0.1 µM; IC50 ([3]; protocol of Example B-2): > 0.3 µM; IC50 [5]: < 0.1 µM |
| Cc1cc(F)ccc1-c1c(C)ncc(C(=O)Nc2ccc(Oc3ccnc4cc(C(C)C)cnc34)cc2)c1O [Compound 597, 5-(4-Fluoro-2-methylphenyl)-4-hydroxy-6-methyl-N-[4-[(7-propan-2-yl-1,5-naphthyridin-4-yl)oxy]phenyl]pyridine-3-carboxamide] |  |  |  |  |  |  | IC50 ([1]; protocol of Example C-2): > 0.3 µM; IC50 ([2]; protocol of Example D-2): 0.1 to 0.3 µM; IC50 ([3]; protocol of Example B-2): > 0.3 µM; IC50 [5]: 0.1 to 0.3 µM |
| COc1cnc2c(Oc3ccc(NC(=O)c4cn(C(F)F)c(C)c(-c5ccc(F)cc5)c4=O)cc3F)ccnc2c1 [Compound 626, 1-(Difluoromethyl)-N-[3-fluoro-4-[(7-methoxy-1,5-naphthyridin-4-yl)oxy]phenyl]-5-(4-fluorophenyl)-6-methyl-4-oxopyridine-3-carboxamide] | < 0.1 | < 0.1 | < 0.1 |  |  |  |  |
| Cc1ncc(C(=O)Nc2ccc(Oc3ccnc4cc(Br)cnc34)cc2)c(O)c1-c1ccc(F)cc1 [Compound 149, N-[4-[(7-Bromo-1,5-naphthyridin-4-yl)oxy]phenyl]-5-(4-fluorophenyl)-4-hydroxy-6-methylpyridine-3-carboxamide] | < 0.1 |  | < 0.1 | < 0.1 | < 0.1 | 0.1 to 0.3 |  |
| COc1cc2nccc(Oc3ccc(NC(=O)c4c(C)n(C)cc(-c5ccc(F)cc5)c4=O)cc3)c2nc1OC [Compound 238, N-[4-[(6,7-Dimethoxy-1,5-naphthyridin-4-yl)oxy]phenyl]-5-(4-fluorophenyl)-1,2-dimethyl-4-oxopyridine-3-carboxamide] | < 0.1 |  | < 0.1 | < 0.1 | < 0.1 | > 0.3 |  |
| COc1cnc2c(Oc3ccc(NC(=O)c4c(C)ncn(-c5ccc(F)cc5)c4=O)cc3)ccnc2c1 [Compound 255, 1-(4-Fluorophenyl)-N-[4-[(7-methoxy-1,5-naphthyridin-4-yl)oxy]phenyl]-4-methyl-6-oxopyrimidine-5-carboxamide] | < 0.1 |  | 0.1 to 0.3 | < 0.1 | 0.1 to 0.3 | > 0.3 |  |

Now from value to compound, other results behind:

| IC50 [4, 8] [µM] | IC50 [6, 9] [µM] | IC50 [7, 10] [µM] | IC50 [1, 11] [µM] | IC50 [2, 12] [µM] | IC50 [3, 13] [µM] | SMILES | further results |
| --- | --- | --- | --- | --- | --- | --- | --- |
| < 0.1 | 0.1 to 0.3 | < 0.1 |  |  |  | COCc1nc(C)cc(O)c1C(=O)Nc1ccc(Oc2ccnc3cc(OC)c(OC)nc23)c(F)c1 [Compound 492, N-[4-[(6,7-dimethoxy-1,5-naphthyridin-4-yl)oxy]-3-fluorophenyl]-4-hydroxy-2-(methoxymethyl)-6-methylpyridine-3-carboxamide] |  |
| < 0.1 | < 0.1 | < 0.1 |  |  |  | Cc1cc(C)n(-c2ccc(F)cc2)c(=O)c1C(=O)Nc1ccc(Oc2ccnc3cc(C(C)CO)cnc23)c(F)c1 (centres unmarked) [Compound 599, N-[3-Fluoro-4-[[7-(1-hydroxypropan-2-yl)-1,5-naphthyridin-4-yl]oxy]phenyl]-1-(4-fluorophenyl)-4,6-dimethyl-2-oxopyridine-3-carboxamide] |  |
|  |  | < 0.1 | < 0.1 | < 0.1 | < 0.1 | Cc1ncc(C(=O)Nc2ccc(Oc3ccnc4cc(F)cnc34)c(F)c2)c(O)c1-c1ccc(F)cc1 [Compound 160, N-[3-Fluoro-4-[(7-fluoro-1,5-naphthyridin-4-yl)oxy]phenyl]-5-(4-fluorophenyl)-4-hydroxy-6-methylpyridine-3-carboxamide] | IC50 [5]: < 0.1 µM |
| < 0.1 |  | < 0.1 | < 0.1 | < 0.1 | > 0.3 | COc1cc2nccc(Oc3ccc(NC(=O)c4cn(-c5ccccn5)cc(-c5ccc(F)cc5)c4=O)cc3F)c2nc1OC [Compound 124, N-[4-[(6,7-Dimethoxy-1,5-naphthyridin-4-yl)oxy]-3-fluorophenyl]-5-(4-fluorophenyl)-4-oxo-1-pyridin-2-ylpyridine-3-carboxamide] |  |
| < 0.1 |  | 0.1 to 0.3 | < 0.1 | 0.1 to 0.3 | > 0.3 | COc1cc2nccc(Oc3ccc(NC(=O)c4cnc(C(F)(F)F)c(-c5ccc(F)cc5)c4O)cc3F)c2nc1OC [Compound 79, N-[4-[(6,7-Dimethoxy-1,5-naphthyridin-4-yl)oxy]-3-fluorophenyl]-5-(4-fluorophenyl)-4-hydroxy-6-(trifluoromethyl)pyridine-3-carboxamide] |  |
